US8163731B2, “Method and dosage regimens for eliminating a chemical substance in blood” (Rhodes Technologies, priority 2008, dated 2012)

Key:
[1] = system: physical dependence to opioids and related substances; assay: Multidose tapering of buprenorphine in opiate-dependent patients (cessation success, withdrawal symptoms); format: in vivo; details: for Successful, percent of total patients: calculated blood level reduction no greater than 5% from previous period
Description: After several years of clinical experience in the use of buprenorphine, it became clear that a single dose in mg of buprenorphine given over a short period of time would not lead to a drug-free status. […]. If the dose is reduced rapidly, the patient reacts with both physical and emotional symptoms of withdrawal. By reducing the dose slowly, the patients experience a period where there is little or no decline in biologically available narcotic and thus feel more secure as they are not experiencing even minor withdrawal symptoms.
Commercially available buprenorphine (Suboxone® & Subutex®) is available in strengths of 8.0 mg as well as 2.0 mg. However, that these medications would not suffice for a successful program, because the 2.0 mg dose was too large and too steep cut-off. […]. During inception of development of multidose treatment that led to the current invention, and using the then current state of art, buprenorphine troches for the treatment (not maintenance) of opiate dependence was used on a patient that was a person who was using I.V. 5-8 bags of heroin daily. They were started on 3 mg of buprenorphine and remained on this dose for three days. After a two day period without opiates, an attempt was made to administer the opiate blocker naltrexone which was intended to assure that a person is indeed drug free and remained so.
Many alterations in treatment protocols to prevent withdrawal were made. The alterations included a greater variety of doses ranging from 8.0 to 4.0 mg administered in a deceasing amount over time. At first the dose strengths varied from 8.0 mg administered once daily with a daily reduction of 2.0 mg until to 4.0 mg, and then to 2.0 mg.
A 6.0 mg dose was then added to the protocol. This lengthened the withdrawal period from three days to seven. This change was occasioned by the observation that the drop from 8.0 mg to 4.0 mg was all too frequently accompanied by a significant return of withdrawal symptoms and, at times, a return to use.
Despite these alterations in the treatment protocol the results were still not what were expected. The observation was made that a cut-off of 2.0 mg would cause a return of withdrawal symptoms within 24 hrs and thus the likelihood of a return to drug use before naltrexone could be started. […] As a result, a 1.0 mg lozenges were administered
A fractional buprenorphine dose was administered to reduce the severity of withdrawal symptoms. This strategy was in response to ongoing withdrawal symptoms following the “conclusion” of withdrawal or a “final” 3.0 mg dose of buprenorphine. To mitigate the withdrawal symptoms, a dose of 1.5 mg of buprenorphine was given to the patient. This particular treatment was unsuccessful as the ongoing withdrawal symptoms were too difficult for the patient who relapsed as a result.
Stepwise increments were amended to proceed in the sub 1.0 mg dose range. The taper at this time was 1.0 mg, 0.75 mg, 0.5 mg, to 0.25 mg then a four day period of blank troches followed by an upward taper of troches with naltrexone going from 0.5 mg of naltrexone to 10.0 mg of naltrexone. With serial doses of 0.25 mg of buprenorphine many patients continued to report perceptible and, in some cases, intolerable withdrawal symptoms.
As a result of the ongoing objective patient observations and patient's subjective complaints of withdrawal symptoms, a 0.1 mg dose was introduced. Additionally, a dose of 1.5 mg as well as a dose of 0.75 mg was added to the dose progression series. Although withdrawal complaints were limited, they were still present, and generally in the late phases of treatment. […] A strategy of 0.1 mg decreases in dose was implemented when the patients reached the 4.0 mg dose range (i.e., 2.0 mg twice a day) and 0.01 mg deceases in the below 1.0 mg range. The effect of this change also to extended the withdrawal period to about six to eight weeks from four weeks. […]

[2] = system: smoking cessation; details: very large reduction steps; cited from earlier work
[3] = system: opiate blocker; withdrawal symptoms; assay: Naltrexone given after the end of buprenorphine treatment (precipitated withdrawal)
Description: Since naltrexone is administered following the cessation of narcotic, there can be no residual narcotic in a patient's system, otherwise the naltrexone will push the patient into withdrawal. Therefore, the patient must wait about a week before to start naltrexone, even with extremely low doses, doses that may be considered to be homeopathic but are high enough to cause withdrawal symptoms if the narcotic is not fully washed out.

buprenorphine hydrochloride
Successful, percent of total patients ([1]; 1-30 treatment days): 50.7%
Successful, number of patients ([1]; 1-30 treatment days, total 75): 38
Successful, percent of total patients ([1]; 31-60 treatment days): 75.0%
Successful, number of patients ([1]; 31-60 treatment days, total 52): 39
Successful, percent of total patients ([1]; 61-90 treatment days): 90.5%
Successful, number of patients ([1]; 61-90 treatment days, total 21): 19
success rates in achieving freedom from physical dependence to opioids and related substances ([1]; specific gradually decreasing but measured doses of replacement narcotic): ≥ 90%

CN1CCCC1c1cccnc1 (stereo not shown) [nicotine]
clinical success rates over placebo [2]: 6-12%

O=C1CC[C@@]2(O)[C@H]3Cc4ccc(O)c5c4[C@@]2(CCN3CC2CC2)[C@H]1O5 [naltrexone]
withdrawal symptoms caused by naltrexone ([3]; 12.5 mg, up to five days after the end of buprenorphine treatment): causes a return of withdrawal symptoms
withdrawal symptoms caused by naltrexone ([3]; given after a two day period without opiates following 3 mg buprenorphine for three days): severe withdrawal symptoms
